Each structure is given as a SMILES string. Where only a bound is given, the exact number is not on record here.

The values that follow come from patent US20250136606A1, “MODULATORS OF TRPML, THEIR COMPOSITIONS AND METHODS OF USE” (Caraway Therapeutics, Inc., priority 2021, published 2025).

Common to all, as to type: cell-based
Common to all, as to settings: fluorescent calcium assay

The target of one experiment is T1, TRPML3 (Homo sapiens, UniProt Q8TDD5).
T1 construct: expressed in transfected cells
T1 sequence (Q8TDD5 1-553): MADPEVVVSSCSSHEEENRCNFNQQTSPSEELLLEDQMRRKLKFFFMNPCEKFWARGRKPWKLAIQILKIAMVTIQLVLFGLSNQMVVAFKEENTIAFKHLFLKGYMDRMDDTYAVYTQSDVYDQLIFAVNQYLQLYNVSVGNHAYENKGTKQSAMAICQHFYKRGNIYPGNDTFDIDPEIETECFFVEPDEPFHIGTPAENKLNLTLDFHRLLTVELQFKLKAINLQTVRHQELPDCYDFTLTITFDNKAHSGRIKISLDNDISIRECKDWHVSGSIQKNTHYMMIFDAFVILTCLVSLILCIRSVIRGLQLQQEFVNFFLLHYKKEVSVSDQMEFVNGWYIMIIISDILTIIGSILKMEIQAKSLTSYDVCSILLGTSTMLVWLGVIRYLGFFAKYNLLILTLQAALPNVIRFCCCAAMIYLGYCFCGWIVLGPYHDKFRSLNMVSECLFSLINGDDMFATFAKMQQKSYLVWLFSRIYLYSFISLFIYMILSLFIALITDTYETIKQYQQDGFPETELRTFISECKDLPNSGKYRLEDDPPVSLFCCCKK
The experiment can be described thus: Fluorescent TRPML3 assay (performed as for TRPML1, substituting the TRPML3 subtype). An outline of the steps: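 Agonist activity is scored as percent of plate controls from Fluo4 fluorescence after dye-loaded, doxycycline-induced HEK-293 Trex cells meet compound in high-calcium (10 mM) Ringer's. Compounds run in half-log dilutions from 20 micromolar final, in triplicate.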

The target in a further experiment is T2, TRPML2 (Homo sapiens, UniProt Q8IZK6).
T2 construct: expressed in transfected cells
T2 sequence (Q8IZK6 1-566): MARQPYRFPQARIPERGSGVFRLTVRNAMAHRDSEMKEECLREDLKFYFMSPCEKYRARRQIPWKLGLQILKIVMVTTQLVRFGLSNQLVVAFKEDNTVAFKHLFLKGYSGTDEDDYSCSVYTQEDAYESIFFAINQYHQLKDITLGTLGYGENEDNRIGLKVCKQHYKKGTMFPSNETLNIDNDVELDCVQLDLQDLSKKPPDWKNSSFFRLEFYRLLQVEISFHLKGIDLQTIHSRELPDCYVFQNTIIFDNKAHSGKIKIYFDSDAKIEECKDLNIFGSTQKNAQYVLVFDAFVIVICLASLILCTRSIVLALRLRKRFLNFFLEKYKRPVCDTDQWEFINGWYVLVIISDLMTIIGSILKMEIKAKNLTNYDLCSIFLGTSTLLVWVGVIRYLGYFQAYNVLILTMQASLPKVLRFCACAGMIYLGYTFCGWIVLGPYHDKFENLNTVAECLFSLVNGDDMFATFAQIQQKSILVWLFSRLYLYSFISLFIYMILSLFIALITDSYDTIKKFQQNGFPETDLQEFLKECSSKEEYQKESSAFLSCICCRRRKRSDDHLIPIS
Put plainly: Fluorescent TRPML2 assay (performed as for TRPML1, substituting the TRPML2 subtype). On the procedure: HEK-293 Trex cells were stably transfected with a construct consisting of the human coding sequence for TRPML1 cloned into the […] plasmid pCDNA5 T/O. Mutations were introduced into the TRPML1 sequence to facilitate expression on the cell surface (Silvia Vergarajauregui, Rosa Puertollano, Traffic. 2006 March; 7(3): 337-353). Briefly, the cells are cultured in 150 mm round tissue culture dishes containing 20 mL of media. The day before the assay the cells are rinsed with DPBS-Ca—Mg and then treated briefly with Trypsin-EDTA. The Trypsin-EDTA is diluted with growth media, and cells are counted. 38×10^6 cells are re-plated into 150 mm round tissue culture dishes in media containing 0.5 ug/mL doxycycline to induce expression of hTRPML1.
The day of the experiment cells are lifted from the plates as above and collected by centrifugation. The cells are then suspended in dye loading buffer consisting of Ringer's solution supplemented with 0.1% Pluronic Acid and 1 micromolar Fluo4-AM dye. Cells are loaded for ˜60 minutes in the dark with occasional mixing. The cells are collected by centrifugation, the loading media aspirated, and the cells resuspended in 25 mL Ringer's solution and incubated ˜60 minutes in the dark. The cells are again collected by centrifugation, rinsed in Ringer's Solution and resuspended to […] in modified Ringer's solution containing 10 mM calcium.
Compounds are dissolved to a concentration of 10 millimolar with DMSO. Compound plates are created by dispensing compounds into 384 well black wall clear bottom plates (Greiner 781091). Positive and negative controls are included on each plate. Typically, different amounts of each compound are tested ranging from 100 nanoMoles (20 micromolar final concentration) decreasing in half-log steps to 31 picoMoles (6 nanomolar final concentration). Each concentration is typically tested in triplicate.
50 microliters of dye-loaded cells are dispensed into each well of the compound assay plate created above. The fluorescence in each well is then determined with an excitation wavelength of 480 nm and an emission wavelength of 540 nm using either a Molecular Devices SpectraMax multimode plate reader or a Hamamatsu FDSS/uCell plate imager.
The resulting fluorescence for each well is exported as an ascii file and loaded into our LIMS for analysis. The percent activity of each compound at each concentration is determined by comparison to the positive and negative control wells included in each plate.
TRPML2 and TRPML3 Assays Assays for TRPML2 and TRPML3 were performed as above for TRPML1, by substituting the appropriate TRPML2 or TRPML3 subtype for the TRPML1.
EC50 values were calculated using a non-linear regression of Prism. In the table, “A” indicates an EC50 of less than 100 nM, “B” indicates an EC50 range from 100 nM to 500 nM; “C” indicates an EC50 range from 500 nM to 2 μM; and “D” indicates an EC50 greater than 2 μM.

Another experiment deals with TRPML1 (Homo sapiens, UniProt Q9GZU1). Put plainly: Fluorescent TRPML1 assay (Fluo4-AM calcium fluorescence in doxycycline-induced HEK-293 Trex cells). The method in brief:
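EC50 values come from non-linear regression of percent activity, normalized to on-plate positive and negative controls, with fluorescence read at 480 nm excitation and 540 nm emission. Fluo4-AM-loaded (1 µM) doxycycline-induced HEK-293 Trex cells expressing mutated human TRPML1 were exposed in 10 mM calcium Ringer's to 6 nM–20 µM compound, in triplicate.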

Sequence of TRPML1 (Q9GZU1 whole entry L15A/L16A/L577A/L578A, form open): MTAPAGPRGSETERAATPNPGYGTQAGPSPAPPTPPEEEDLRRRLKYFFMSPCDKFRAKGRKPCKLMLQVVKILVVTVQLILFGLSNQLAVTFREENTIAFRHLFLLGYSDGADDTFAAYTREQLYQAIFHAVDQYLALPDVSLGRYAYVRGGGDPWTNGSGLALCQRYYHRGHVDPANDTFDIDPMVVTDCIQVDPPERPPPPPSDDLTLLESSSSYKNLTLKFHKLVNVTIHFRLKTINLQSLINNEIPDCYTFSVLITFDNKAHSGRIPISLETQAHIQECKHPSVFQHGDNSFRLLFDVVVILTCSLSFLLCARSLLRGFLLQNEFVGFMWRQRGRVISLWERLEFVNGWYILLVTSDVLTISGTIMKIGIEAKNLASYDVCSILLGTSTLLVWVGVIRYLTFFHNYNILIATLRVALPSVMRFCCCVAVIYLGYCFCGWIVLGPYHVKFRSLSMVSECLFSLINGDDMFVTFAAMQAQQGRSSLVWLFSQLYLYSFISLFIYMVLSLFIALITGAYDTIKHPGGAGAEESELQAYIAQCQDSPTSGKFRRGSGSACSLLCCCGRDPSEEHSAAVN

With `CC(C)(C)OC(=O)N1CCN(c2ncnc3c2c(-c2cccnc2)cn3-c2cccc(Cl)c2)CC1` [Compound 102, tert-butyl 4-(7-(3-chlorophenyl)-5-(pyridin-3-yl)-7H-pyrrolo [2,3-d]pyrimidin-4-yl)piperazine-1-carboxylate], the half-maximal effective concentration (EC50) is under 0.1 µM at TRPML3, 0.1 to 0.5 µM at TRPML2 and under 0.1 µM at TRPML1.
On to `COc1cncc(-n2cc(-c3ccccc3F)c3c(N4CCN(C(=O)OC(C)(C)C)CC4)ncnc32)c1` [Compound 103, tert-butyl 4-(5-(2-fluorophenyl)-7-(5-methoxypyridin-3-yl)-7H-pyrrolo[2,3-d]pyrimidin-4-yl)piperazine-1-carboxylate], for which the figures for the EC50 at TRPML3, at TRPML2 and at TRPML1 were 0.1 to 0.5 µM, 0.5 to 2 µM and 0.1 to 0.5 µM, respectively.
Regarding `COc1cncc(-n2cc(C3CC3)c3c(N4CCN(C(=O)OC(C)(C)C)CC4)ncnc32)c1` [Compound 104, tert-butyl 4-(5-cyclopropyl-7-(5-methoxypyridin-3-yl)-7H-pyrrolo[2,3-d]pyrimidin-4-yl)piperazine-1-carboxylate], the EC50 on TRPML3 is 0.1 to 0.5 µM; at TRPML2, over 2 µM; at TRPML1 it was 0.5 to 2 µM.
Taken in the same sequence, the figures for `COc1cncc(-n2cc(-c3ccccc3F)c3c(N4CCN(C(=O)OC(C)(C)C)C[C@@H]4C)ncnc32)c1` [Compound 105, tert-butyl (S)-4-(5-(2-fluorophenyl)-7-(5-methoxypyridin-3-yl)-7H-pyrrolo[2,3-d]pyrimidin-4-yl)-3-methylpiperazine-1-carboxylate] were 0.5 to 2 µM, over 2 µM and 0.5 to 2 µM.
Taken in the same sequence, the figures for `COc1cncc(-n2cc(C3CC3)c3c(N4CCN(C(=O)OC(C)(C)C)C[C@@H]4C)ncnc32)c1` [Compound 106, tert-butyl (S)-4-(5-cyclopropyl-7-(5-methoxypyridin-3-yl)-7H-pyrrolo[2,3-d]pyrimidin-4-yl)-3-methylpiperazine-1-carboxylate] were 0.1 to 0.5 µM, 0.5 to 2 µM and 0.1 to 0.5 µM.
Taken in the same sequence, the figures for `CC(C)(C)OC(=O)N1CCN(c2ncnc3c2c(C2CC2)cn3-c2ccc(Cl)cc2)CC1` [Compound 107, tert-butyl 4-(7-(4-chlorophenyl)-5-cyclopropyl-7H-pyrrolo[2,3-d]pyrimidin-4-yl) piperazine-1-carboxylate] were under 0.1 µM, 0.1 to 0.5 µM and under 0.1 µM.
With `C[C@@H]1CN(c2ncnc3c2c(C2CC2)cn3-c2cc(F)cc(F)c2)CCN1C(=O)OC(C)(C)C` [Compound 108, tert-butyl (R)-4-(5-cyclopropyl-7-(3,5-difluorophenyl)-7H-pyrrolo[2,3-d]pyrimidin-4-yl)-2-methylpiperazine-1-carboxylate], the results for the EC50 on TRPML3, on TRPML2 and on TRPML1 were under 0.1 µM, 0.1 to 0.5 µM and under 0.1 µM, respectively.
On to `C[C@@H]1CN(c2ncnc3c2c(C2CC2)cn3-c2ccc(F)c(F)c2)CCN1C(=O)OC(C)(C)C` [Compound 109, tert-butyl (R)-4-(5-cyclopropyl-7-(3,4-difluorophenyl)-7H-pyrrolo[2,3-d]pyrimidin-4-yl)-2-methylpiperazine-1-carboxylate], for which the EC50 at TRPML3, on TRPML2 and on TRPML1 was under 0.1 µM in each case.
Take `C[C@@H]1CN(c2ncnc3c2c(C2CC2)cn3-c2ccc(Cl)c(F)c2)CCN1C(=O)OC(C)(C)C` [Compound 110, tert-butyl (R)-4-(7-(4-chloro-3-fluorophenyl)-5-cyclopropyl-7H-pyrrolo[2,3-d]pyrimidin-4-yl)-2-methylpiperazine-1-carboxylate]: the concentration for a half-maximal effect (EC50) at TRPML3, at TRPML2 and on TRPML1 was under 0.1 µM each time.
Take `C[C@@H]1CN(c2ncnc3c2c(C2CC2)cn3-c2cc(Cl)cc(Cl)c2)CCN1C(=O)OC(C)(C)C` [Compound 111, tert-butyl (R)-4-(5-cyclopropyl-7-(3,5-dichlorophenyl)-7H-pyrrolo[2,3-d]pyrimidin-4-yl)-2-methylpiperazine-1-carboxylate]: the EC50 at TRPML3 was under 0.1 µM; on TRPML2 it was 0.1 to 0.5 µM; at TRPML1 it was under 0.1 µM.
With `CCOC(=O)N1CCN(c2ncnc3c2c(C2CC2)cn3-c2ccc(Cl)cc2)[C@@H](C)C1` [Compound 112, ethyl (S)-4-(7-(4-chlorophenyl)-5-cyclopropyl-7H-pyrrolo[2,3-d]pyrimidin-4-yl)-3-methylpiperazine-1-carboxylate], the 50% effective concentration (EC50) at TRPML3 fell in the range of 0.5 to 2 µM; on TRPML2, 0.1 to 0.5 µM; at TRPML1, 0.1 to 0.5 µM.
For `CC(C)(C)OC(=O)N1CCN(c2ncnc3c2c(C2CC2)cn3-c2ccc(F)c(F)c2)CC1` [Compound 113, tert-butyl 4-(5-cyclopropyl-7-(3,4-difluorophenyl)-7H-pyrrolo[2,3-d]pyrimidin-4-yl)piperazine-1-carboxylate], the EC50 at TRPML3 is 0.1 to 0.5 µM; on TRPML2 it was 0.5 to 2 µM; at TRPML1 it was under 0.1 µM.
Taken in the same sequence, the figures for `C[C@H]1CN(C(=O)OC(C)(C)C)CCN1c1ncnc2c1c(C1CC1)cn2-c1ccc(Cl)cc1` [Compound 114, tert-butyl (S)-4-(7-(4-chlorophenyl)-5-cyclopropyl-7H-pyrrolo[2,3-d]pyrimidin-4-yl)-3-methylpiperazine-1-carboxylate] were under 0.1 µM, under 0.1 µM and under 0.1 µM.
For `C[C@H]1CN(C(=O)OC(C)(C)C)CCN1c1ncnc2c1c(-c1ccncn1)cn2-c1cccc(Cl)c1` [Compound 115, tert-butyl (S)-4-(7-(3-chlorophenyl)-5-(pyrimidin-4-yl)-7H-pyrrolo[2,3-d]pyrimidin-4-yl)-3-methylpiperazine-1-carboxylate], in that order: 0.1 to 0.5 µM, 0.5 to 2 µM and 0.1 to 0.5 µM.

As usually defined, the EC50 is the concentration giving half of the maximal effect.
